The assay concerns the target JAK1 (Homo sapiens, UniProt P23458). Nature of the assay: ADP-Glo luminescent kinase assay, recombinant JAK1, Poly E4Y1 substrate, […] ATP. It is filed as biochemical. (In general: ADP-Glo first removes unused ATP, then detects ADP through luciferase.)

Each structure is given as a SMILES string.

Chain of JAK1 (P23458 whole entry): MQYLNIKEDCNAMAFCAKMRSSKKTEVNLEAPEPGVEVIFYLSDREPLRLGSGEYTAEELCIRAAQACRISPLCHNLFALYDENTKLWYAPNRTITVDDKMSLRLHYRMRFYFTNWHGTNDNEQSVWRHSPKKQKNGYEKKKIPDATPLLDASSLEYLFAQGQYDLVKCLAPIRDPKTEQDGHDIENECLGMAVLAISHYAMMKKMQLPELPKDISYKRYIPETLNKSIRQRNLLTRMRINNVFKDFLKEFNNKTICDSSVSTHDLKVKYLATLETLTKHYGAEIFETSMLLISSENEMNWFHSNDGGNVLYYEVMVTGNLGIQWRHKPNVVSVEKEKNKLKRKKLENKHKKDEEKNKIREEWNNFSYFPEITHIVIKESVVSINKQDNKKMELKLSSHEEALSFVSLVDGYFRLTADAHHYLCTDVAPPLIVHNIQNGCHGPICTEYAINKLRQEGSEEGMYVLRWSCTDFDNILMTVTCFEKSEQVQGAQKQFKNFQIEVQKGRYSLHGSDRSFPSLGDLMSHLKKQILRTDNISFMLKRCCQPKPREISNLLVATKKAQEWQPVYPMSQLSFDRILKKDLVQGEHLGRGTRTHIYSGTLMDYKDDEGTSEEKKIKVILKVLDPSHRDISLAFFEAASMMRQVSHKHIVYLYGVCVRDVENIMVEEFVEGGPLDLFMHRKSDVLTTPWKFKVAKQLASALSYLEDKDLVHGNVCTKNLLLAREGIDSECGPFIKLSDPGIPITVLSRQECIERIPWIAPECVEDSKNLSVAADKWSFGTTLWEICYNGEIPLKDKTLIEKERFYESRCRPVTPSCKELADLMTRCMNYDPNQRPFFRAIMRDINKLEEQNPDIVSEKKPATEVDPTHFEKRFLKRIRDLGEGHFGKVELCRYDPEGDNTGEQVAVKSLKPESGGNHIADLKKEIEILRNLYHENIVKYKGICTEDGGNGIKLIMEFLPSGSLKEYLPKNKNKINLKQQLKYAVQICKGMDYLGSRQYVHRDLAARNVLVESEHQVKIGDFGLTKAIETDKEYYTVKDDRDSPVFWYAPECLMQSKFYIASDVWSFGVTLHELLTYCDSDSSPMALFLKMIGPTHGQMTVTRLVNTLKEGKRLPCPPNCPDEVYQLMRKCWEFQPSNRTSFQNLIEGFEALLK

One may read the IC50 as the concentration that gives 50% inhibition. For `NC(=O)Nc1sc(-c2ccc(F)cc2)cc1C(N)=O` [TPCA-1, 2-[(aminocarbonyl)amino]-5-(4-fluorophenyl)-3-thiophenecarboxamide], the half-maximal inhibitory concentration (IC50) was 43.8 nM.

(Values after publication PMC4619123 (Virology, 2015).)
